Assay results from ChEMBL document CHEMBL4507278 (2021).
pKi: −log10 of the molar value.

How the values were obtained:
[1] = molecular target: Mitogen-activated protein kinase kinase kinase 3 (Homo sapiens) (UniProt Q99759); conditions: Compound concentration 1000.0 nM
[2] = molecular target: Ephrin type-A receptor 7 (Homo sapiens) (UniProt Q15375); conditions: Compound concentration 1000.0 nM
[3] = molecular target: RAC-beta serine/threonine-protein kinase (Homo sapiens) (UniProt P31751); conditions: Compound concentration 1000.0 nM
[4] = molecular target: Muscarinic acetylcholine receptor M2 (Homo sapiens) (UniProt P08172); conditions: Compound concentration 10.0 uM
[5] = molecular target: Homeodomain-interacting protein kinase 1 (Homo sapiens) (UniProt Q86Z02); conditions: Compound concentration 1000.0 nM
[6] = molecular target: Myosin light chain kinase (Homo sapiens) (UniProt Q32MK0); conditions: Compound concentration 1000.0 nM
[7] = molecular target: Serine/threonine-protein kinase ULK2 (Homo sapiens) (UniProt Q8IYT8); conditions: Compound concentration 1000.0 nM
[8] = molecular target: 5-hydroxytryptamine receptor 6 (Homo sapiens) (UniProt P50406); conditions: Compound concentration 10.0 uM
[9] = molecular target: T1, D(4) dopamine receptor (Homo sapiens) (UniProt P21917); experiment: D4.2/H Eurofins-Panlabs selectivity data (BI); conditions: Compound concentration 10.0 uM
T1 sequence (whole entry): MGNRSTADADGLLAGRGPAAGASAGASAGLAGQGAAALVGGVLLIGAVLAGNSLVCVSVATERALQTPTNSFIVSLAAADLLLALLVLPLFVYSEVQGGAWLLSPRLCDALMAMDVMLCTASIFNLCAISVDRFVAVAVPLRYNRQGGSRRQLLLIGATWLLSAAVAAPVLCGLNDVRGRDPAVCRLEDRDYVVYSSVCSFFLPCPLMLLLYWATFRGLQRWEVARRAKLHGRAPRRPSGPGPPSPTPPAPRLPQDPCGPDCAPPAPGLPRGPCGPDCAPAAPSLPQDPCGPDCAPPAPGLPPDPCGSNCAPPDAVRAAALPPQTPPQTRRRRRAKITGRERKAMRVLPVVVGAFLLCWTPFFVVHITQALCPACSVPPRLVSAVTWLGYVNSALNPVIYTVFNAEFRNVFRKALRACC

[10] = molecular target: D(3) dopamine receptor (Homo sapiens) (UniProt P35462); conditions: Compound concentration 10.0 uM
[11] = molecular target: 3',5'-cyclic-AMP phosphodiesterase 4A (Rattus norvegicus) (UniProt P54748); experiment: ROLIPRAM/R Eurofins-Panlabs selectivity data (BI); conditions: Compound concentration 10.0 uM
[12] = molecular target: Substance-P receptor (Homo sapiens) (UniProt P25103); experiment: NK1/HU Eurofins-Panlabs selectivity data (BI); conditions: Compound concentration 10.0 uM
[13] = molecular target: Gamma-aminobutyric acid type B receptor subunit 1 (Homo sapiens) (UniProt Q9UBS5); experiment: GABA_B1A Eurofins-Panlabs selectivity data (BI); conditions: Compound concentration 10.0 uM
[14] = molecular target: Gamma-aminobutyric acid receptor subunit alpha-1 (Rattus norvegicus) (UniProt P62813); experiment: GABAA MUSCIMOL CENT Eurofins-Panlabs selectivity data (BI); conditions: Compound concentration 10.0 uM
[15] = molecular target: Acetylcholine receptor subunit alpha (Homo sapiens) (UniProt P02708); experiment: NACH/H Eurofins-Panlabs selectivity data (BI); conditions: Compound concentration 10.0 uM
[16] = molecular target: B2 bradykinin receptor (Homo sapiens) (UniProt P30411); experiment: B2/H Eurofins-Panlabs selectivity data (BI); conditions: filed as antagonist, Compound concentration 10.0 uM
[17] = molecular target: Kappa-type opioid receptor (Homo sapiens) (UniProt P41145); experiment: KAPPA/HU Eurofins-Panlabs selectivity data (BI); conditions: Compound concentration 10.0 uM
[18] = molecular target: T2, C-C chemokine receptor type 1 (Homo sapiens) (UniProt P32246); experiment: CCR1 Eurofins-Panlabs selectivity data (BI)
T2 sequence (whole entry): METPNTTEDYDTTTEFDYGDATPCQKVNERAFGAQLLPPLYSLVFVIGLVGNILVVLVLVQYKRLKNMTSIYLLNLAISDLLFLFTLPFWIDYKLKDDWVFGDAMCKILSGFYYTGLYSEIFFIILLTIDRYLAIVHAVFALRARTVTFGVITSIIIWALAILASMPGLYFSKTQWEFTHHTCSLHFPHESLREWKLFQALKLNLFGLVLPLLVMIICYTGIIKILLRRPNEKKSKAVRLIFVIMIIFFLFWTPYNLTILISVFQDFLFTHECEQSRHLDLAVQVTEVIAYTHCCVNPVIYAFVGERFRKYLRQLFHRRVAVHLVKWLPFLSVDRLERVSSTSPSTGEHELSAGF

[19] = molecular target: T3, Beta-1 adrenergic receptor (Homo sapiens, UniProt P08588); experiment: GPCRScan assay: inhibition of Beta1; design: radioligand conc. used [nm] 0.1 – 0.2, parental cells CHO Flp-In
Target sequence in this assay (P08588 whole entry): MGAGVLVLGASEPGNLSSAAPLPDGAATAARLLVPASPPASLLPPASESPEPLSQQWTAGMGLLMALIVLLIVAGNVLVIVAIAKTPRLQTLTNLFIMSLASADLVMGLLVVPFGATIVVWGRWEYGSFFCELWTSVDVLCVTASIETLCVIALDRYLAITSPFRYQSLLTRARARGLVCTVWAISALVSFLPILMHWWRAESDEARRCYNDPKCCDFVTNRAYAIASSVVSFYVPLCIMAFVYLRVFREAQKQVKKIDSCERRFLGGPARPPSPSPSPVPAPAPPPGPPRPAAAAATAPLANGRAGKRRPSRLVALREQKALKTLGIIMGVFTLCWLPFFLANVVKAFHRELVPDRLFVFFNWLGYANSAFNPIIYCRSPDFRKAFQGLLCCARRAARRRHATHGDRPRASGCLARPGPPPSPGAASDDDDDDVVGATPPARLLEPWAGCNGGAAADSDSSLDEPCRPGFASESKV

[20] = molecular target: P2X purinoceptor (Oryctolagus cuniculus) (UniProt G1U3D6); experiment: P2X/RB Eurofins-Panlabs selectivity data (BI); conditions: Compound concentration 10.0 uM
[21] = molecular target: Sodium channel regulatory subunit beta-1 (Rattus norvegicus) (UniProt Q00954); experiment: NA+/SITE2/RA Eurofins-Panlabs selectivity data (BI); conditions: Compound concentration 10.0 uM
[22] = molecular target: Platelet-activating factor receptor (Homo sapiens) (UniProt P25105); experiment: PAF/H Eurofins-Panlabs selectivity data (BI); conditions: Compound concentration 10.0 uM
[23] = molecular target: Sodium- and chloride-dependent GABA transporter 1 (Rattus norvegicus) (UniProt P23978); experiment: GABATRANS/RA Eurofins-Panlabs selectivity data (BI); conditions: Compound concentration 10.0 uM
[24] = molecular target: T3, Beta-1 adrenergic receptor; experiment: BETA1/HU Eurofins-Panlabs selectivity data (BI); conditions: Compound concentration 10.0 uM
Target sequence in this assay (P08588 whole entry, looked up): as the sequence (P08588 whole entry) above

[25] = molecular target: Muscarinic acetylcholine receptor M1 (Homo sapiens) (UniProt P11229); experiment: M1/HU Eurofins-Panlabs selectivity data (BI); conditions: Compound concentration 10.0 uM
[26] = molecular target: T4, 5-hydroxytryptamine receptor 3A (Homo sapiens) (UniProt P46098); experiment: 5HT3/HU Eurofins-Panlabs selectivity data (BI); conditions: Compound concentration 10.0 uM
T4 sequence (whole entry): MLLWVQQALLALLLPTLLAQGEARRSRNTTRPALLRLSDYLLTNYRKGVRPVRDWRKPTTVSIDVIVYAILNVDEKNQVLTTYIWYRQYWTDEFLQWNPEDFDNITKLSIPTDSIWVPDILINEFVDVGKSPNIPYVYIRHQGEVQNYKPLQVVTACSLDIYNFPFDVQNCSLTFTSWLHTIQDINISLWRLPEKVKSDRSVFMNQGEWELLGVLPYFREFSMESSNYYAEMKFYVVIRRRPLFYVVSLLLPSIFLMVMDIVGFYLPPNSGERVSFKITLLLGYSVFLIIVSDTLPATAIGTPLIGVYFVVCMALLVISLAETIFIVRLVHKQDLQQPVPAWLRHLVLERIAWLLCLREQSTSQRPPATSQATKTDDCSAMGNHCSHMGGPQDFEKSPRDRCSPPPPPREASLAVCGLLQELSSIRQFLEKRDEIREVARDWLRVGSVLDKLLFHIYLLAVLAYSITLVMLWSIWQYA

[27] = molecular target: Voltage-dependent L-type calcium channel subunit alpha-1C (diltiazem site) (Rattus norvegicus, UniProt P22002); experiment: CA+/DILSI/RA Eurofins-Panlabs selectivity data (BI); conditions: compound concentration 10 uM, read-out: % Ctrl

Chain of D(3) dopamine receptor (Homo sapiens) (P35462 whole entry): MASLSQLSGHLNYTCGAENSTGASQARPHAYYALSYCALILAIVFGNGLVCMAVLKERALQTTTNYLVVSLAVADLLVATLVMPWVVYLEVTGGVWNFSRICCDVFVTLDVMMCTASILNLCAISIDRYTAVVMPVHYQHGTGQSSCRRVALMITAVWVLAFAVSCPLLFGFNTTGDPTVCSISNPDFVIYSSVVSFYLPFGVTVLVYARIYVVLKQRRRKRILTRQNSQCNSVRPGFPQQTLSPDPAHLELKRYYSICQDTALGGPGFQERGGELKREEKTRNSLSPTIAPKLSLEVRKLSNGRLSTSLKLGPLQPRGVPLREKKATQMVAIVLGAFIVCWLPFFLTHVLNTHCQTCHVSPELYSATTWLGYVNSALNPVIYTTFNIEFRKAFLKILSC
Chain of Mitogen-activated protein kinase kinase kinase 3 (Homo sapiens) (Q99759 whole entry): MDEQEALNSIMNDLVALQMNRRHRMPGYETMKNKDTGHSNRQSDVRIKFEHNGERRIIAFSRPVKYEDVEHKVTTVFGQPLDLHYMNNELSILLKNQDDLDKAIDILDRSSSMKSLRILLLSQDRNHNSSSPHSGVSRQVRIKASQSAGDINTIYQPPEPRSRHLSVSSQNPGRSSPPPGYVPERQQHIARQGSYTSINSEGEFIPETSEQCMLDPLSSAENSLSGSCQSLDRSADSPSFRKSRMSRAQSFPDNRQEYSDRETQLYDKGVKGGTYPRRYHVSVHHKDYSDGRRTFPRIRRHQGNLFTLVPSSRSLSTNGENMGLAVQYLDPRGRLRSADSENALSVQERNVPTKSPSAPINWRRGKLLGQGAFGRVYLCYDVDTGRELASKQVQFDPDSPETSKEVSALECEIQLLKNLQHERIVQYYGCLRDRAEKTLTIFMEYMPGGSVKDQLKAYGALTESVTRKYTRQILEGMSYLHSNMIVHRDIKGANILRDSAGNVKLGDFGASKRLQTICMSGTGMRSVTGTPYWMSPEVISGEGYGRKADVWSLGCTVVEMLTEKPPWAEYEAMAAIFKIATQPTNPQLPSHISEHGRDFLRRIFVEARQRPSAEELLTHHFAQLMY
Chain of Sodium channel regulatory subunit beta-1 (Rattus norvegicus) (Q00954 whole entry): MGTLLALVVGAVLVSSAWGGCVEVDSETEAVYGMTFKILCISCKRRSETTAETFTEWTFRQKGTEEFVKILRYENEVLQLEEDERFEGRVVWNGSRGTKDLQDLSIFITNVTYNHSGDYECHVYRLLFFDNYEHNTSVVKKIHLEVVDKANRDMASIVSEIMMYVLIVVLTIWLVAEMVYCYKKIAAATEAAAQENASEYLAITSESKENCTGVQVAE
Chain of Homeodomain-interacting protein kinase 1 (Homo sapiens) (Q86Z02 whole entry, looked up): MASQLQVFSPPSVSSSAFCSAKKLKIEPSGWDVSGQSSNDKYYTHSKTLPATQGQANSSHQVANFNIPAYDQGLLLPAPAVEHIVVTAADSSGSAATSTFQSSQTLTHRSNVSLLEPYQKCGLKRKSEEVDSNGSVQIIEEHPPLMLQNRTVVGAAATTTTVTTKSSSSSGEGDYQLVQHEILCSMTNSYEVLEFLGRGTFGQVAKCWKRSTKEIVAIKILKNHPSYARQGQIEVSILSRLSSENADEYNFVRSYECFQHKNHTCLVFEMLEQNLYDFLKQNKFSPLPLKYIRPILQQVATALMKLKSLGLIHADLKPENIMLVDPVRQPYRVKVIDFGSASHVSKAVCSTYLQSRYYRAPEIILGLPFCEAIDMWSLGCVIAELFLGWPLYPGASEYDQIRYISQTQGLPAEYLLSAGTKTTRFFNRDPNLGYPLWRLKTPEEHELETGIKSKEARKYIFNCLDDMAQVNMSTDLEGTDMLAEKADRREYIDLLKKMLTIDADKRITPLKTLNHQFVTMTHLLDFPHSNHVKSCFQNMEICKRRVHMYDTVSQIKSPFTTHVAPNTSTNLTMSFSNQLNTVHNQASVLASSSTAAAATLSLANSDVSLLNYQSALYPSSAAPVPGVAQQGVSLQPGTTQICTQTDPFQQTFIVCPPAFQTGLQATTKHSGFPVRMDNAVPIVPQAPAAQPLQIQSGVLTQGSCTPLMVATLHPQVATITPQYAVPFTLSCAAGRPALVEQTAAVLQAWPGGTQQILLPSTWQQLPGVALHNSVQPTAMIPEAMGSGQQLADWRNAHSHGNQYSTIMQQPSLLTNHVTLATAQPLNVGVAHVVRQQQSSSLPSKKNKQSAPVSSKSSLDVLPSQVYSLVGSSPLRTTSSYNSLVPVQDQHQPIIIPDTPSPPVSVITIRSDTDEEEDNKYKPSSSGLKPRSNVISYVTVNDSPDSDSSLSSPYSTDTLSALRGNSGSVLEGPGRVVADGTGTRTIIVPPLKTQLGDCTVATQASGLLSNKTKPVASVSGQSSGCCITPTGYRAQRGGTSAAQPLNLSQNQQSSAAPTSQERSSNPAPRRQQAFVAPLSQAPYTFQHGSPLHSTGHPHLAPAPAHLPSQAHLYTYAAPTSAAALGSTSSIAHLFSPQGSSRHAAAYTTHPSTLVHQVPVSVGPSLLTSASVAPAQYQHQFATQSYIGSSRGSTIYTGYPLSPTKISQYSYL
Chain of Gamma-aminobutyric acid receptor subunit alpha-1 (Rattus norvegicus) (P62813 whole entry): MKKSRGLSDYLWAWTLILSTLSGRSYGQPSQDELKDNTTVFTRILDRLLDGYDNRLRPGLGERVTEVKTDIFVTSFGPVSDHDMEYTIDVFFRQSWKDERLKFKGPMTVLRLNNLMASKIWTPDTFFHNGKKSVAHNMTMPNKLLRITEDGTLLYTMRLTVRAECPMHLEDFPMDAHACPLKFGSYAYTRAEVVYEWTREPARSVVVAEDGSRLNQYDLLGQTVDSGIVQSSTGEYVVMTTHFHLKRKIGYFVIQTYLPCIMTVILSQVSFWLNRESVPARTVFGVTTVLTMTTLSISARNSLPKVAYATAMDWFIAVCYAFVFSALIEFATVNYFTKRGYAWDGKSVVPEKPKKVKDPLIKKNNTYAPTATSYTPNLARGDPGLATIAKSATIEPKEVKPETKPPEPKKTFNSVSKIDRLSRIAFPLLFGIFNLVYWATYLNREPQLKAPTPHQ
Chain of Gamma-aminobutyric acid type B receptor subunit 1 (Homo sapiens) (Q9UBS5 whole entry): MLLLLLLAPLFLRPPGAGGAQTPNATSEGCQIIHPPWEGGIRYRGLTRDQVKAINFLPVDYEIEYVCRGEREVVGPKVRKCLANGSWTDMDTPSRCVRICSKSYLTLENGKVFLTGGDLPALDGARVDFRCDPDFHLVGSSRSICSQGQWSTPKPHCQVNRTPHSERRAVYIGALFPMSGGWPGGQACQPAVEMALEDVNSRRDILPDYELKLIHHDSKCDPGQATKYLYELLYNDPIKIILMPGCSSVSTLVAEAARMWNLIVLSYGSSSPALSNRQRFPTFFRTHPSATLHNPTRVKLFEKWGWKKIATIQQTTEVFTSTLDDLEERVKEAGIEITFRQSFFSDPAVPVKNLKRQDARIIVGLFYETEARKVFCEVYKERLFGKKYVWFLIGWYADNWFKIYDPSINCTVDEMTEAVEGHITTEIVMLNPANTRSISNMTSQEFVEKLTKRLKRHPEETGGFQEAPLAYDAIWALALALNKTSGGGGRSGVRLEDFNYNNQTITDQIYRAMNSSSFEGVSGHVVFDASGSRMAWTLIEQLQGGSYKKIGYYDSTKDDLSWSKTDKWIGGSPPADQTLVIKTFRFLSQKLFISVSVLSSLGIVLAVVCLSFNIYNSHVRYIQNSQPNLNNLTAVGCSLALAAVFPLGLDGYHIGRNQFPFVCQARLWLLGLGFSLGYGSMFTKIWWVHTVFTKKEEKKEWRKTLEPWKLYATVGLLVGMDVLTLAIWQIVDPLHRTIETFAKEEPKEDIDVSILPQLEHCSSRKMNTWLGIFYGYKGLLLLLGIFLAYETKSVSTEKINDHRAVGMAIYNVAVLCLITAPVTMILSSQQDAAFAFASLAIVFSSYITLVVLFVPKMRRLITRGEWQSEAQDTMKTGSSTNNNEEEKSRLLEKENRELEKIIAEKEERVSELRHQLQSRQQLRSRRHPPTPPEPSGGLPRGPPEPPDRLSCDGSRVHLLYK
Chain of B2 bradykinin receptor (Homo sapiens) (P30411 whole entry): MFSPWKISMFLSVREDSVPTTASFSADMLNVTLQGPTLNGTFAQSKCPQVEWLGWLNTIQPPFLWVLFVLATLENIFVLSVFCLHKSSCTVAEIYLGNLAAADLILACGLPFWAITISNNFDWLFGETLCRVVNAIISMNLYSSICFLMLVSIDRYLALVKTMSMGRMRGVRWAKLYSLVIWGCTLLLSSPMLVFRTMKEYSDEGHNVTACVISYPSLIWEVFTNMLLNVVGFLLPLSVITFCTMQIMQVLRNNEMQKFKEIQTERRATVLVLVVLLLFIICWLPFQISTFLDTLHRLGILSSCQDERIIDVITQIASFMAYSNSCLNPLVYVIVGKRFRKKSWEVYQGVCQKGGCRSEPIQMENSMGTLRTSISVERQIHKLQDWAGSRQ

SMILES: CS(=O)(=O)NCC[C@H](NC(=O)c1cncc2c1cnn2-c1ccc(F)cc1)c1ccnc(S(C)(=O)=O)c1 [BI 9307]
- residual activity [1]: 100%
- residual activity [2]: 82%
- residual activity [3]: 100%
- inhibition [4]: 17.4%
- residual activity [5]: 100%
- residual activity [6]: 100%
- residual activity [7]: 100%
- inhibition [8]: -4.31%

SMILES: CS(=O)(=O)c1cc(C2(NC(=O)c3cncc4c3cnn4-c3ccc(F)cc3)CC2)ccn1 [BI 639667]
- residual activity [9]: 94%
- inhibition [10]: 17.6%
- residual activity [11]: 81%
- residual activity [12]: 95%
- residual activity [13]: 90%
- residual activity [14]: 98%
- residual activity [15]: 91%
- residual activity [16]: 100%
- residual activity [17]: 101%
- residual activity ([18]; Compound concentration 0.03 uM): 72%
- residual activity ([18]; Compound concentration 0.1 uM): 52%
- residual activity ([18]; Compound concentration 0.3 uM): 33%
- residual activity ([18]; Compound concentration 1.0 uM): 17%
- residual activity ([18]; Compound concentration 3.0 uM): 7.5%
- residual activity ([18]; Compound concentration 10.0 uM): 3%
- pKi [19]: 5.72
- residual activity [20]: 101%
- residual activity [21]: 81%
- residual activity [22]: 93%
- residual activity [23]: 89%
- residual activity [24]: 95%
- residual activity [25]: 99%
- residual activity [26]: 124%
- activity at 10 µM [27]: 58% (not active)
